US7745619B2, “Vinca derivatives” (priority 2003, dated 2010)
Like-named read-outs stand apart in the source and are kept apart here.

What was measured:
HeLa S-3 cells = assay: HeLa GI50 determination (SRB growth inhibition); format: cell-based, human; conditions: Homo sapiens, HeLa S3, 48 h
Procedure: Growth inhibition (GI50) values were measured on the human cervical carcinoma cell line, HeLa S-3, which were selected for growth on plastic. The HeLa cell assay was based on the description of Skehan et al., J. Natl. Cancer Inst., 82:1107-12 (1990), which is hereby incorporated by reference in its entirety. HeLa cells were plated at 2×10^4 cells/well in 96 well plates. One day later, a control plate was fixed by the addition of TCA to 5%. After five rinses with tap water, the plate was air-dried and stored at 4° C. Test compounds were added to the remaining plates at 10-fold dilutions. Two days later, all plates were fixed as described above. Cells were then stained by the addition of 100 μL per well of 0.4% sulforhodamine B (SRB) in 1% acetic acid for 30 min at 4° C. Wells were then quickly rinsed 5× with 1% acetic acid and allowed to air dry. The SRB was then solubilized by the addition of 100 μL per well of unbuffered 10 mM Tris base. Dye was quantified by measuring absorbance at 490 nm on a Molecular Devices microplate reader. Growth inhibition was calculated according to the following equation: GI=100×(T−T0)/(C−T0), where the optical density (OD) of the test well after 2 days of treatment was T, the OD of the wells in the control plate on day 0 was T0 and C was the OD of untreated wells. Plots of percent growth inhibition versus inhibitor concentration were used to determine the GI50.

MCF-7 cells = assay: MCF-7 GI50 determination (crystal violet growth inhibition); format: cell-based, human; conditions: Homo sapiens, MCF7, 96 h
Procedure: Growth inhibition (GI50) values were measured on the human breast carcinoma line, MCF-7. MCF-7 cells were plated at 2×10^4 cells/well in 96 well plates and grown for 24 hours in drug free media. On day 2, test compounds were added to the plates at 10-fold dilutions. Four days later, cells were fixed by the addition of glutaraldehyde to 0.75%. After 30 min, the fixed cells were extensively rinsed with distilled water and dried at room temperature for one hour. The cells were then stained with a 0.2% crystal violet solution for one hour at room temperature. Unbound stain was removed by ten rinses with tap water and plates were allowed to air dry for 30 min. The crystal violet was then solubilized by the addition of 10% acetic acid for 15 min and quantified by measuring absorbance at 570 nm on a Molecular Devices microplate reader. Growth inhibition was calculated according to the following equation: GI=[…], where the optical density (OD) of the test well after 4 days of treatment was T, the OD of the wells in the control plate on day 0 was T0. Plots of percent growth inhibition versus inhibitor concentration were used to determine the GI50.

[1] = read-out: MCF-7 Cells GI50 (nM)
[2] = HeLa S-3 cells, 2 days of treatment, sulforhodamine B, read-out: HeLa Cells GI50
[3] = MCF-7 cells, 4 days of treatment, crystal violet, read-out: MCF-7 Cells GI50

Compound	GI50 (HeLa S-3 cells; read-out: HeLa Cells GI50 (nM)) [nM]	GI50 (MCF-7 cells; [1]) [nM]	GI50 (HeLa S-3 cells; [2]) [nM]	GI50 (MCF-7 cells; [3]) [nM]
CC[C@]1(O)C[C@H]2CN(CCc3c([nH]c4ccc(/C=C/CNC(=O)OC(C)(C)C)cc34)[C@@](C(=O)OC)(c3cc4c(cc3OC)N(C)[C@H]3[C@@](O)(C(=O)OC)[C@H](OC(C)=O)[C@]5(CC)C=CCN6CC[C@]43[C@@H]65)C2)C1 [Example 31, 12′-(3-tert-butoxycarbonylaminopropenyl) vinblastine]	600	300		
CC[C@]1(O)C[C@H]2CN(CCc3c([nH]c4ccc(SCCCCO)cc34)[C@@](C(=O)OC)(c3cc4c(cc3OC)N(C)[C@H]3[C@@](O)(C(=O)OC)[C@H](OC(C)=O)[C@]5(CC)C=CCN6CC[C@]43[C@@H]65)C2)C1 [Example 32, 12′-(4-hydroxybutylsulfanyl)vinblastine]	35	30		
CC[C@]1(O)C[C@H]2CN(CCc3c([nH]c4ccc(SCCCO)cc34)[C@@](C(=O)OC)(c3cc4c(cc3OC)N(C)[C@H]3[C@@](O)(C(=O)OC)[C@H](OC(C)=O)[C@]5(CC)C=CCN6CC[C@]43[C@@H]65)C2)C1 [Example 33, 12′-(4-hydroxypropylsulfanyl)vinblastine]			20	30
CC[C@]1(O)C[C@H]2CN(CCc3c([nH]c4ccc(SCCO)cc34)[C@@](C(=O)OC)(c3cc4c(cc3OC)N(C)[C@H]3[C@@](O)(C(=O)OC)[C@H](OC(C)=O)[C@]5(CC)C=CCN6CC[C@]43[C@@H]65)C2)C1 [Example 35, 12′-(2-hydroxyethylsulfanyl)vinblastine]			200	60
CC[C@]1(O)C[C@H]2CN(CCc3c([nH]c4ccc(SCc5ccc(OC)cc5)cc34)[C@@](C(=O)OC)(c3cc4c(cc3OC)N(C)[C@H]3[C@@](O)(C(=O)OC)[C@H](OC(C)=O)[C@]5(CC)C=CCN6CC[C@]43[C@@H]65)C2)C1 [Example 36, 12′-(4-methoxybenzylsulfanyl)vinblastine]	30	50		
CC[C@]1(O)C[C@H]2CN(CCc3c([nH]c4ccc(SCc5ccccc5F)cc34)[C@@](C(=O)OC)(c3cc4c(cc3OC)N(C=O)[C@H]3[C@@](O)(C(=O)OC)[C@H](OC(C)=O)[C@]5(CC)C=CCN6CC[C@]43[C@@H]65)C2)C1 [Example 38]	100	200		
CCCSc1ccc2[nH]c3c(c2c1)CCN1C[C@H](C[C@@](O)(CC)C1)C[C@]3(C(=O)OC)c1cc2c(cc1OC)N(C)[C@H]1[C@@](O)(C(=O)OC)[C@H](OC(C)=O)[C@]3(CC)C=CCN4CC[C@]21[C@@H]43 [Example 39, 12′-(propylsulfanyl) vinblastine]			25	25
CCSc1ccc2[nH]c3c(c2c1)CCN1C[C@H](C[C@@](O)(CC)C1)C[C@]3(C(=O)OC)c1cc2c(cc1OC)N(C=O)[C@H]1[C@@](O)(C(=O)OC)[C@H](OC(C)=O)[C@]3(CC)C=CCN4CC[C@]21[C@@H]43 [Example 40, 12′-(ethylsulfanyl) vincristine]			6	8
CCSc1ccc2[nH]c3c(c2c1)CCN1C[C@H](C[C@@](O)(CC)C1)C[C@]3(C(=O)OC)c1cc2c(cc1OC)N(C)[C@H]1[C@@](O)(C(=O)OC)[C@H](OC(C)=O)[C@]3(CC)C=CCN4CC[C@]21[C@@H]43 [Example 41, 12′-(ethylsulfanyl) vinblastine]			2	3
CC[C@]1(O)C[C@H]2CN(CCc3c([nH]c4ccc(SC)cc34)[C@@](C(=O)OC)(c3cc4c(cc3OC)N(C=O)[C@H]3[C@@](O)(C(=O)OC)[C@H](OC(C)=O)[C@]5(CC)C=CCN6CC[C@]43[C@@H]65)C2)C1 [Example 42, 12′-(methylsulfanyl) vincristine]			3	3
CC[C@]1(O)C[C@H]2CN(CCc3c([nH]c4ccc(SC)cc34)[C@@](C(=O)OC)(c3cc4c(cc3OC)N(C)[C@H]3[C@@](O)(C(=O)OC)[C@H](OC(C)=O)[C@]5(CC)C=CCN6CC[C@]43[C@@H]65)C2)C1 [Example 43, 12′-(methylsulfanyl) vinblastine]			0.6	2
CC[C@]1(O)C[C@H]2CN(CCc3c([nH]c4ccc(SCC(=O)OC(C)(C)C)cc34)[C@@](C(=O)OC)(c3cc4c(cc3OC)N(C)[C@H]3[C@@](O)(C(=O)OC)[C@H](OC(C)=O)[C@]5(CC)C=CCN6CC[C@]43[C@@H]65)C2)C1 [Example 44, 12′-(tert-butoxycarbonylmethylsulfanyl) vinblastine]	70	100		
CC[C@]1(O)C[C@H]2CN(CCc3c([nH]c4ccc(SCC(=O)O)cc34)[C@@](C(=O)OC)(c3cc4c(cc3OC)N(C)[C@H]3[C@@](O)(C(=O)OC)[C@H](OC(C)=O)[C@]5(CC)C=CCN6CC[C@]43[C@@H]65)C2)C1 [Example 45, 12′-(carboxymethylsulfanyl)vinblastine]	50	200		
CC[C@]1(O)C[C@H]2CN(CCc3c([nH]c4ccc(SCC(=O)NC)cc34)[C@@](C(=O)OC)(c3cc4c(cc3OC)N(C)[C@H]3[C@@](O)(C(=O)OC)[C@H](OC(C)=O)[C@]5(CC)C=CCN6CC[C@]43[C@@H]65)C2)C1 [Example 46, 12′-(methylaminocarbonylmethylsulfanyl)vinblastine]	200	500		
CC[C@]1(O)C[C@H]2CN(CCc3c([nH]c4ccc(SCCC(=O)OC)cc34)[C@@](C(=O)OC)(c3cc4c(cc3OC)N(C=O)[C@H]3[C@@](O)(C(=O)OC)[C@H](OC(C)=O)[C@]5(CC)C=CCN6CC[C@]43[C@@H]65)C2)C1 [Example 47, 12′-(methoxycarbonylethylsulfanyl) vincristine]	20	40		
CC[C@]1(O)C[C@H]2CN(CCc3c([nH]c4ccc(SCCN(C)C)cc34)[C@@](C(=O)OC)(c3cc4c(cc3OC)N(C)[C@H]3[C@@](O)(C(=O)OC)[C@H](OC(C)=O)[C@]5(CC)C=CCN6CC[C@]43[C@@H]65)C2)C1 [Example 48, 12′-(2-(N,N-dimethylamino)ethylsulfanyl)vinblastine]	30	40		
CC[C@]1(O)C[C@H]2CN(CCc3c([nH]c4ccc(SCCCN5CCOCC5)cc34)[C@@](C(=O)OC)(c3cc4c(cc3OC)N(C)[C@H]3[C@@](O)(C(=O)OC)[C@H](OC(C)=O)[C@]5(CC)C=CCN6CC[C@]43[C@@H]65)C2)C1 [Example 49, 12′-(3-(morpholin-4-yl)propylsulfanyl) vinblastine]	8	30		
CC[C@]1(O)C[C@H]2CN(CCc3c([nH]c4ccc(SCCCN5CCCCC5)cc34)[C@@](C(=O)OC)(c3cc4c(cc3OC)N(C)[C@H]3[C@@](O)(C(=O)OC)[C@H](OC(C)=O)[C@]5(CC)C=CCN6CC[C@]43[C@@H]65)C2)C1 [Example 50, 12′-(3-(piperidin-1-yl)propylsulfanyl) vinblastine]			20	40
CC[C@]1(O)C[C@H]2CN(CCc3c([nH]c4ccc(SCCNC(C)=O)cc34)[C@@](C(=O)OC)(c3cc4c(cc3OC)N(C)[C@H]3[C@@](O)(C(=O)OC)[C@H](OC(C)=O)[C@]5(CC)C=CCN6CC[C@]43[C@@H]65)C2)C1 [Example 52, 12′-(2-(acetylamino)ethylsulfanyl) vinblastine]	200	300		
CC[C@]1(O)C[C@H]2CN(CCc3c([nH]c4ccc(S)cc34)[C@@](C(=O)OC)(c3cc4c(cc3OC)N(C)[C@H]3[C@@](O)(C(=O)OC)[C@H](OC(C)=O)[C@]5(CC)C=CCN6CC[C@]43[C@@H]65)C2)C1 [Example 53, 12′-thiovinblastine]			20	30
CC[C@]1(O)C[C@H]2CN(CCc3c([nH]c4ccc(Sc5cccc(O)c5)cc34)[C@@](C(=O)OC)(c3cc4c(cc3OC)N(C=O)[C@H]3[C@@](O)(C(=O)OC)[C@H](OC(C)=O)[C@]5(CC)C=CCN6CC[C@]43[C@@H]65)C2)C1 [Example 54, 12′-(3-hydroxyphenylsulfanyl)vincristine]	100	50		
CC[C@]1(O)C[C@H]2CN(CCc3c([nH]c4ccc(Sc5ccccc5O)cc34)[C@@](C(=O)OC)(c3cc4c(cc3OC)N(C)[C@H]3[C@@](O)(C(=O)OC)[C@H](OC(C)=O)[C@]5(CC)C=CCN6CC[C@]43[C@@H]65)C2)C1 [Example 55, 12′-(2-hydroxyphenylsulfanyl)vinblastine]	19	6		
